| Compound | melting point |
| --- | --- |
| Cc1ccc(C(=O)N(C(C)C)C(C)C)c(F)c1C1=NC(C)(C(C)C)C(=O)N1 (configuration not stated) | 205 to 210 °C |
| CN(c1cccc2cc(C(=O)O)[nH]c12)S(=O)(=O)c1ccccc1C(F)(F)F | 211 to 212 °C |
| N=C(Nc1cccc(NC(=O)C=Cc2ccccc2)c1)c1ccccc1 | 115 to 117 °C |
| CC(C)c1nc(COC(N)=O)n(C)c1Sc1cc(Cl)cc(Cl)c1 | 146 to 148 °C |
| COCSCCNC(=C[N+](=O)[O-])SC | 54 to 58 °C |
| CCOC(=O)C(C(=O)c1ccc(C#N)cc1)C1c2ccccc2Oc2ccccc21 (configuration not stated) | 141 °C |
| CCCCc1nc(C(O)(CC)CC)c(C(=O)O)n1Cc1ccc(-c2ccccc2-c2nnn[nH]2)cc1 | 181 to 183 °C |
| CC(C)c1c(C=O)c(-c2ccc(F)cc2)nn1-c1ccccc1 | 103 to 105 °C |
| COCCOc1cc2ncnc(NC3=CC(=O)C(N(C)c4ccc(OC)cc4)=CC3=O)c2cc1OC | 197 to 198 °C |
| Cc1ccc([N+](=O)[O-])c(C)c1[N+](=O)[O-] | 81 to 83 °C |
| O=C(O)c1cccc(C(=O)C=Cc2ccc(OCc3ccccc3)cc2)c1O | 174 to 175 °C |
| CC(C)Oc1ccc(-n2c(C(=O)NC(C)(C)C(=O)O)c(Cl)c3cc(Oc4ccc(C(F)(F)F)cc4)ccc32)cc1 | 187 to 188 °C |
| COC(=O)C1=C(C)Nc2nccn2C1c1ccccn1 (configuration not stated) | 224 to 226 °C |
| CCN(CC)c1nc(-c2ccc3c(c2)OCO3)nc2sc(C#N)c(C)c12 | 199 to 201 °C |
| CC(C)(C)OC(=O)N[C@@H](CC1CCCCC1)[C@@H]1CO1 | 58 to 59.5 °C |
| CCn1c2ccccc2c2cc(C#N)ccc21 | 183 to 185 °C |
| CC(C)C[C@H](NC(=O)N1CCN(c2ccccc2)CC1)C(=O)OCc1ccccc1 | 88 °C |
| CCOC(=O)c1c(/C=C/c2nccn2C)nc2cc(OC)c(OC)cc2c1-c1ccc(OC)c(OC)c1 | 206 to 208 °C |
| C=CCN1C(=O)CC(=O)N(c2ccccc2)c2cc(Cl)ccc21 | 199 to 201 °C |

| Compound | melting point |
| --- | --- |
| CS(=O)(=O)Nc1cccc(Nc2nc(NCc3cccnc3)c3nc[nH]c3n2)c1 | 144 to 147 °C |
| O=S(=O)(/C=C/c1ccc(F)cc1)CS(=O)(=O)/C=C/c1ccc(F)cc1 | 183 to 185 °C |
| CCO[C@@H]1C(C(=O)Nc2ccc(Cl)cc2)=C(C)OC(OCC)(OCC)[C@H]1C (relative stereo) | 104 to 106 °C |
| NC(=O)c1cccc(CCCBr)c1 | 109 °C |
| Cc1nc(/C=C/c2ccccc2)no1 | 166 to 168 °C |
| O=C(Cc1ccccc1)N1C[C@@H]2SCCC(c3ccccc3)(c3ccccc3)[C@@H]2C1 (racemic) | 210 °C |
| CC(C)CCN1C(=O)C(NC(=O)Nc2ccccc2)C(=O)N(CCN(C)C)c2ccccc21 (configuration not stated) | 159 to 161 °C |
| CNc1nnc(-c2ccc3occ(-c4ccc(S(C)=O)cc4)c3c2)o1 (configuration not stated) | 240 to 241 °C |
| CCCCc1c(C=O)ccc2c(OC)cccc12 | 61.5 to 62.5 °C |
| CC1(C)c2ccccc2S(=O)(=O)N1CCCCl | 107 °C |
| Cc1cc(F)ccc1-c1ccc(S(=O)(=O)N2c3ccccc3CC2C(=O)NCCOc2ccc(CC(=O)O)cc2)cc1 (configuration not stated) | 99 to 105 °C |
| Cc1nc(C)c(CC#N)cc1CC#N | 65 to 67 °C |
| CCOc1cccc(OCC)c1NC(=O)Cc1c(-c2ccccc2OC)c2cc(Cl)ccc2n1C | 180 to 183 °C |
| C[C@@H](n1cnc2cc(F)c(F)cc2c1=O)[C@](O)(Cn1cncn1)c1ccc(F)cc1F | 212 to 213 °C |
| COc1ccc(C2CC3(C)C(=O)CCC3C3CCC4=CC(=O)CCC4C23)cc1 (configuration not stated) | 155 to 156 °C |
| CC1(C)OC(=O)C(Oc2ccc(Br)cc2)=C1c1ccc(S(C)(=O)=O)cc1 | 150 to 152 °C |
| CC(C)OC(=O)COc1ccc(C(=O)CBr)cc1 | 60 to 61 °C |
| CC(=O)OCC1OC(c2ccc(Cl)c(Cc3ccc(-c4ccc(F)nc4)s3)c2)C(OC(C)=O)C(OC(C)=O)C1OC(C)=O (configuration not stated) | 161 to 162 °C |
| COCCOC(=O)Nc1cccc(C)c1CNc1cccn2c(CO)c(C)nc12 | 138 to 140 °C |

| Compound | melting point |
| --- | --- |
| CCCc1nc2c(N)nc(C)c(C)c2n1CCOCc1ccccc1 | 99.5 to 100 °C |
| Cn1cc(-c2ccccc2)c(=O)c(-c2cccc(-c3ccccc3)c2)c1 | 186 to 190 °C |
| CC=C1C(=O)N2C(C(=O)OCc3ccc([N+](=O)[O-])cc3)=C(SCCNC(=O)OCc3ccc([N+](=O)[O-])cc3)CC12 (configuration not stated) | 160 to 161 °C |
| CCNc1nc(C)c(-c2ccnc(Nc3ccc(N4CCSCC4)cc3)n2)s1 | 207 to 209 °C |
| CCCCCCCNC(=O)Nc1ccc(N(C)C)cc1C(=O)NC(C)(C)C1CCN(C(c2ccccc2)c2ccccc2)CC1 | 190 °C |
| N#CNC(=N)CCCSc1nccc(NC(N)=NCC(F)(F)F)n1 | 224 °C |
| Cc1cc(C2=NN[C@H](C)Cc3cc4c(cc32)OCO4)ccc1N | 193 to 196 °C |
| O=C(Nc1cccc([N+](=O)[O-])c1)NC1C(=O)N(CC23CC4CC(CC(C4)C2)C3)c2ccccc2N(c2ccccc2)C1=O (configuration not stated) | 213 to 215 °C |
| FC(F)(F)Sc1ncn(-c2c(Cl)cc(C(F)(F)F)cc2Cl)c1Br | 87.5 °C |
| CCOc1cc(O[Si](C)(C)C(C)(C)C)c(C)c(C(=O)OCc2ccc([N+](=O)[O-])cc2)c1C | 75 to 76 °C |
| C#CC1(O)C(CO)OC(n2ccc(=O)[nH]c2=O)C1O (configuration not stated) | 226 to 228 °C |
| COc1ccc(-c2nc(Cn3ccnn3)cs2)cc1 | 89 to 94 °C |
| CCOc1nc2ncnn2c2c1cnc1c2cnn1CC | 196 to 197 °C |
| COc1cccc(C(=O)O)c1NC(=O)C(C)(C)C | 117 to 120 °C |
| CC(Cc1ccccc1C(=O)O)c1cccs1 (configuration not stated) | 66 to 68 °C |
| CC(C)(C)C(O)C(=Cn1ccnc1)Oc1ccc(F)cc1 (configuration not stated) | 112 to 113 °C |
| CS(=O)(=O)Nc1cc(C(c2cc(F)ccc2F)S(=O)(=O)c2ccc(Cl)cc2)c(Cl)cn1 (configuration not stated) | 220 to 222 °C |
| Cc1cccc(NC(=O)C=Cc2cn(C)nc2[N+](=O)[O-])n1 | 191 to 193 °C |
| CN(C)c1ccc2nc(-c3ccccc3)oc2n1 | 127 to 129 °C |

Next, values leading:

| melting point | Compound |
| --- | --- |
| 209 to 210 °C | O=C1CCCc2cc(O)cc(O)c21 |
| 149 to 150 °C | CC1(c2ccc(F)c(S(N)(=O)=O)c2)OCCO1 |
| 110 to 111 °C | COc1ccc(C(=O)Cc2ccc3c(c2)OCO3)cc1OC |
| 147 to 150 °C | O=C(O)C1CCCc2c(-c3ccc(Cl)cc3)noc2CC1 (configuration not stated) |
| 103 °C | COc1ccc(Cl)c(Oc2c(CO)nc(N3CCOCC3)nc2NS(=O)(=O)c2ccc(C(C)(C)C)cc2)c1 |
| 141 to 143 °C | COC(=O)c1nc(-c2ccc(Cl)c(OC)c2F)cc(N)c1Cl |
| 103 to 105 °C | CCN(CC)CCNc1ccc(CO)c2sc3ccc(OC)cc3c(=O)c12 |
| 294 to 298 °C | O=C1Nc2ccc(F)cc2C1c1ncnc2nn(C3CCCCC3)cc12 (configuration not stated) |
| 95 to 96 °C | O=C(c1c[nH]c2ccc(Br)cc12)[C@H]1CCCN1C(=O)OCc1ccccc1 |
| 199 to 200 °C | CC(C)C(=O)Nc1ccn2nc(-c3ccccc3)c(-c3ccc(=O)n(C(C)C)n3)c2c1 |
| > 230 °C | CSc1nn2c(N)cc(C3CC3)nc2c1S(=O)(=O)c1ccccc1 |
| 178 to 180 °C | CCCc1c(OCc2nc(N)c3nccnc3n2)ccc(C(C)=O)c1O |
| 79 to 81 °C | COCC1(C)CC(=O)c2cc(C#N)ccc2O1 (configuration not stated) |
| 185 to 186 °C | O=c1oc(-c2ccccc2)cc(O)c1SCc1ccc(OCc2ccccc2)cc1 |
| 178 to 183 °C | Clc1ccc(-c2nc3cc(Cl)ccc3o2)cc1 |
| 140 to 142 °C | Cc1c(CC(=O)O)c2cc(OCc3ccccc3)ccc2n1Cc1ccc(Cl)cc1 |
| 214 to 217 °C | CC1=NC(NC(=O)Nc2cccc(C)c2)C(=O)N(CC(=O)N2CCC(N3CCCCC3)CC2)c2c(C)cccc21 (configuration not stated) |
| 185 to 186 °C | COc1ccc(NC(=O)c2ccc(C)cc2O)cc1 |
| 154 to 155 °C | CCc1cccc2c3c([nH]c12)C(CC)(CC(C)=O)OCC3 (configuration not stated) |
| 88 to 89 °C | CC1(C)COC(c2ccc(F)cc2-c2ccc3c(c2)CCC(Cc2ccccc2)C3O)=N1 (configuration not stated) |

| melting point | Compound |
| --- | --- |
| 77 to 79 °C | O=C(c1c(F)cccc1F)N1COCN(c2ccc(SC(F)F)cc2F)C1=O |
| 209 to 211 °C | Clc1ccc2c(c1)-c1nnnn1-c1ccccc1O2 |
| 133 to 136 °C | CC(=O)N1CCC(=O)C(C(c2ccccc2)c2ccccc2)C1 (configuration not stated) |
| 91 °C | CC1=C(C(=O)N(c2ccccc2)C2CCCCCC(F)C2)CCO1 (configuration not stated) |
| 224 to 225 °C | COc1ccc(C=CC(=O)Oc2cc3c(cc2OC)CC2c4cc(OC)c(OC)cc4CCN2C3)cc1OC (configuration not stated) |
| 117 to 118 °C | C=C1CCN(c2cn(-c3cccnc3)nc2Cl)C1=O |
| 129 to 130 °C | CCOC(=O)C(=CNC1CC1)C(=O)c1cc(F)c(Cl)nc1Cl |
| 128 to 129 °C | CCC(=O)N(C(=O)CC)c1nnc2c3c(c(N4CCCCC4)nn12)CCCC3 |
| 153 to 154 °C | CCC(C)OC(=O)C(C(=O)Nc1nc(C)cs1)=C1SCS1 (configuration not stated) |
| 125 to 129 °C | Fc1cccc2c1CN(C1=NCCO1)C2 |
| 100 to 102 °C | COc1ccc(C2(C#N)CCC(C(N)=O)CC2)cc1OC1CCCC1 (configuration not stated) |
| 238 to 241 °C | CCCCc1nc2ccc(C(=O)O)cc2n1Cc1ccccc1Cl |
| 102 to 103 °C | Cc1cc2c(cc1OC(=S)N(C)C)C(C)(C)CCC2(C)C |
| 165 to 166 °C | CC(C)OCCOc1ccc(-c2ccc3c(c2)C=C(C(=O)O)CCN3C=O)cc1 |
| > 300 °C | Cc1[nH]c(-c2nc3ccc(C(=O)c4ccccc4)cc3[nH]2)c(C)c1C(=O)O |
| 233 °C | Cc1cccc(-c2nc3ccc(O)cc3n2Cc2ccccc2C(F)(F)F)c1 |
| 184 to 187 °C | CC1=CC(c2ccc(Cl)cc2)C2=C(CCCC2=O)N1 (configuration not stated) |
| 142 to 146 °C | CC(O)=C(C#N)C(=O)Oc1cccc(Cl)c1Cl |
| 80 °C | OC1Cc2cccc(Br)c2C1 (configuration not stated) |
| 167 to 169 °C | O=C1C(O)=C(N2CCN(c3cccc(C(F)(F)F)c3)CC2)C(=O)c2ccccc21 |

Reference: a melting point compilation (Tetko et al.; mined from patent text by program, amines drawn as free bases though some values may be those of a salt)
